Test: molar heat capacity at constant pressure; mn = molality of the nth substance listed, in mol/kg
Conditions: 100 kPa, Liquid, DSC

O=S(=O)([O-])[O-].[K+].[K+] [potassium sulfate] + O
molar heat capacity at constant pressure [J/K/mol]
Conditions | 253.15 K | 258.15 K | 263.15 K | 268.15 K | 273.15 K | 278.15 K | 283.15 K | 288.15 K | 293.15 K | 298.15 K
m1 = 0.1142 | – | – | 75.36 | 75.07 | 74.96 | 74.83 | 74.81 | 74.85 | 74.83 | 74.77
m1 = 0.201 | – | – | 74.67 | 74.5 | 74.48 | 74.33 | 74.39 | 74.45 | 74.46 | 74.43
m1 = 0.296 | – | – | 73.96 | 73.87 | 73.91 | 73.89 | 73.98 | 74.02 | 74.15 | 74.11
m1 = 0.415 | 73.75 | 73.5 | 73.32 | 73.32 | 73.42 | 73.4 | 73.55 | 73.65 | 73.77 | 73.77
m1 = 0.515 | – | 73.06 | 72.94 | 72.98 | 73.12 | 73.16 | 73.33 | 73.41 | 73.53 | 73.53
m1 = 0.606 | – | – | 72.64 | 72.74 | 72.9 | 72.92 | 73.14 | 73.21 | 73.33 | 73.33

O=S(=O)([O-])[O-].[Mg+2] [magnesium sulfate] + O
molar heat capacity at constant pressure [J/K/mol]
Conditions | m1 = 0.0546 | m1 = 0.1089 | m1 = 0.213 | m1 = 0.526 | m1 = 1.001 | m1 = 1.502 | m1 = 2.012 | m1 = 2.495 | m1 = 2.775
248.15 K | – | – | – | – | – | – | 67.27 | 67.05 | 67.13
253.15 K | – | – | – | – | – | 68.74 | 67.94 | 67.75 | 67.86
258.15 K | – | – | – | 72.91 | – | 69.24 | 68.52 | 68.37 | 68.51
263.15 K | 76.21 | – | – | 72.94 | 70.95 | 69.74 | 69.11 | 68.98 | 69.12
268.15 K | 75.8 | 75.41 | 74.68 | 73 | 71.26 | 70.17 | 69.62 | 69.54 | 69.7
273.15 K | 75.56 | 75.23 | 74.58 | 73.08 | 71.54 | 70.59 | 70.1 | 70.03 | 70.24
278.15 K | 75.36 | 75.07 | 74.49 | 73.15 | 71.78 | 70.94 | 70.49 | 70.46 | 70.7
283.15 K | 75.24 | 74.96 | 74.44 | 73.23 | 71.98 | 71.23 | 70.88 | 70.89 | 71.11
288.15 K | 75.16 | 74.9 | 74.44 | 73.34 | 72.23 | 71.56 | 71.27 | 71.27 | 71.57
293.15 K | 75.09 | 74.85 | 74.42 | 73.44 | 72.41 | 71.83 | 71.57 | 71.63 | 71.94
298.15 K | 75.05 | 74.83 | 74.44 | 73.55 | 72.65 | 72.12 | 71.91 | 72.01 | 72.35

O=S(=O)([O-])[O-].[Na+].[Na+] [sodium sulfate] + O
molar heat capacity at constant pressure [J/K/mol]
Conditions | 253.15 K | 258.15 K | 263.15 K | 268.15 K | 273.15 K | 278.15 K | 283.15 K | 288.15 K | 293.15 K | 298.15 K
m1 = 0.1012 | – | 76.36 | 75.81 | 75.43 | 75.23 | 75.08 | 74.99 | 74.95 | 74.93 | 74.97
m1 = 0.253 | – | 75.13 | 74.91 | 74.72 | 74.63 | 74.57 | 74.55 | 74.57 | 74.57 | 74.63
m1 = 0.501 | – | 74.17 | 74.13 | 74.09 | 74.11 | 74.15 | 74.2 | 74.28 | 74.32 | 74.4
m1 = 0.748 | 73.94 | 73.9 | 73.96 | 74.02 | 74.08 | 74.13 | 74.23 | 74.33 | 74.39 | 74.47
m1 = 1 | 73.97 | 74.01 | 74.15 | 74.21 | 74.31 | 74.39 | 74.49 | 74.62 | 74.68 | 74.76
m1 = 1.33 | 74.4 | 74.53 | 74.72 | 74.84 | 74.95 | 75.03 | 75.11 | 75.22 | 75.28 | 75.37
m1 = 1.517 | – | 74.71 | 74.81 | 75.03 | 75.22 | 75.33 | 75.52 | 75.65 | 75.77 | 75.8
m1 = 2.084 | – | – | – | – | – | – | 77.16 | 77.32 | 77.39 | 77.32
